Experimental data as given in article PMC6178619, “Arylvinylpiperazine Amides, a New Class of Potent Inhibitors Targeting QcrB of Mycobacterium tuberculosis” (mBio, 2018).
Values after ≈ are worked out from the molar mass of the structure shown. Read-outs that look alike come from different tables or passages of the source.

Legend:
[1] = test system: M. tuberculosis H37Rv; test: MIC by resazurin reduction microplate assay (REMA); assay type: cell-based, Mycobacterium tuberculosis
[2] = test system: M. tuberculosis H37Rv-infected THP-1 macrophages; test: microbe, parasite or virus in culture; assay type: cell-based; conditions: Mycobacterium tuberculosis, THP-1, 48 h, read-out: Antimycobacterial activity against M. tuberculosis H37Rv, ex vivo in THP-1 macrophages (IC50)
[3] = test system: M. tuberculosis H37Rv; test: Acute mouse model of TB; assay type: in vivo, mouse (BALB/c); conditions: for Reduction of bacterial load in mouse lungs vs TPGS vehicle control: once daily for 10 days
[4] = test system: HepG2 cells; assay type: cell-based, human
Method: Human HepG2 cells (4,000 cells/well) were incubated for 3 days with 2-fold serially diluted compounds at 37°C under an atmosphere of 5% CO2. Cell viability was determined by the addition of resazurin (0.0025% wt/vol) for 4 h at 37°C, and the fluorescence intensity was measured as in REMA.

[5] = test system: Salmonella enterica serovar Typhimurium; test: MIC by REMA; assay type: cell-based
[6] = test system: Corynebacterium glutamicum; test: MIC by REMA; assay type: cell-based
[7] = test system: Mycobacterium massiliense; test: MIC by REMA; assay type: cell-based; conditions: Mycobacteroides abscessus
[8] = test system: Escherichia coli; test: MIC by REMA; assay type: cell-based
[9] = test system: Corynebacterium diphtheriae; test: MIC by REMA; assay type: cell-based
[10] = test system: Pseudomonas aeruginosa; test: MIC by REMA; assay type: cell-based
[11] = test system: Mycobacterium canettii STB-L; test: MIC by REMA; assay type: cell-based; conditions: Mycobacterium canetti
[12] = test system: Mycobacterium vaccae; test: MIC by REMA; assay type: cell-based; conditions: Mycolicibacterium vaccae
[13] = test system: Mycobacterium marinum; test: MIC by REMA; assay type: cell-based
[14] = test system: Mycobacterium ulcerans; test: MIC by REMA; assay type: cell-based
[15] = test system: Mycobacterium smegmatis; test: MIC by REMA; assay type: cell-based; conditions: Mycolicibacterium smegmatis
[16] = test system: Mycobacterium bovis BCG; test: microbe, parasite or virus in culture; assay type: cell-based; conditions: Mycobacterium tuberculosis variant bovis BCG
[17] = test system: Enterococcus faecalis; test: MIC by REMA; assay type: cell-based
[18] = test system: Micrococcus luteus; test: MIC by REMA; assay type: cell-based
[19] = test system: Pseudomonas putida; test: MIC by REMA; assay type: cell-based
[20] = test system: Mycobacterium avium; test: MIC by REMA; assay type: cell-based
[21] = test system: Listeria monocytogenes; test: MIC by REMA; assay type: cell-based
[22] = test system: Bacillus subtilis; test: MIC by REMA; assay type: cell-based
[23] = test system: Staphylococcus aureus; test: MIC by REMA; assay type: cell-based
[24] = test system: Candida albicans; test: MIC by REMA; assay type: cell-based
[25] = in vitro
Method: Metabolic stability of the compounds was measured based on intrinsic clearance (Clint) in mouse and human liver microsomes as previously described ([42]). The final compound concentration in the mixture of microsomes and NADPH regeneration system was 2 µg/ml, and a mixture without NADPH regeneration was also prepared for each compound as a control of the stability of the compound with time.

[26] = test system: wild-type H37Rv; assay type: cell-based, Mycobacterium tuberculosis; conditions: 2.5× MIC, 24 h exposure
[27] = test system: M. tuberculosis H37Rv ΔcydAB; assay type: cell-based; conditions: ΔcydAB strain; AX-35 14 µM, Q203 0.3 µM (100× MIC50)
[28] = test system: M. tuberculosis H37Rv; assay type: cell-based; conditions: up to a concentration 32-fold higher than the MIC, 7 days
[29] = test system: H37Rv ΔcydAB::cydAB complemented strain; assay type: cell-based
[30] = test system: M. bovis BCG; conditions: cited from earlier work
[31] = test system: M. tuberculosis H37Rv; assay type: cell-based; conditions: AX-35 14 µM, Q203 0.3 µM (100× MIC50), glucose
[32] = test system: M. tuberculosis H37Rv; conditions: cited from earlier work
[33] = Mycobacterium tuberculosis, H37RV, 144 h; read-out: Antimycobacterial activity against M. tuberculosis H37Rv, in vitro (MIC)
[34] = Mycobacterium canettii STB-L, read-out: MIC
[35] = H37RV; Mycobacterium tuberculosis (Table 2 panel); read-out: MIC

Structure (SMILES) | MIC [1, 33] | IC50 [2] | Cytotoxicity in HepG2 cells (TD50) ([4]; 3 days incubation) | MIC [5] | MIC [6] | MIC [7] | MIC [8] | MIC [9] | MIC [10] | MIC [12] | MIC [13] | MIC [14] | MIC [15] | MIC [16] | MIC [17] | MIC [18] | MIC [19] | MIC [20] | MIC [21] | MIC [22] | other results
O=C(/C=C/c1nccs1)N1CCN(Cc2ccc3c(c2)OCO3)CC1 [AX-39, (E)-1-(4-(Benzo[d][1,3]dioxol-5-ylmethyl)piperazin-1-yl)-3-(thiazol-2-yl)prop-2-en-1-one] | 0.3 µg/mL (≈ 0.839 µM) | 1.8 µg/mL (≈ 5.04 µM) | 75 µg/mL | – | – | – | – | – | – | – | – | – | – | – | – | – | – | – | – | – | Reduction of bacterial load in mouse lungs vs TPGS vehicle control ([3]; oral 100 mg/kg): 0.9 log10
CO[C@H]1/C=C/O[C@@]2(C)Oc3c(C)c(O)c4c(O)c(c(/C=N/N5CCN(C)CC5)c(O)c4c3C2=O)NC(=O)/C(C)=C\C=C\[C@H](C)[C@H](O)[C@@H](C)[C@@H](O)[C@@H](C)[C@H](OC(C)=O)[C@@H]1C [Rifampin, rifampin, reference compound] | – | 0.1 µg/mL (≈ 0.122 µM) | – | 0.7 µg/mL (≈ 0.851 µM) | 0.004 µg/mL (≈ 0.00486 µM) | 26.9 µg/mL (≈ 32.7 µM) | 6.7 µg/mL (≈ 8.14 µM) | 0.0004 µg/mL (≈ 0.000486 µM) | 1 µg/mL (≈ 1.22 µM) | 2.5 µg/mL (≈ 3.04 µM) | 0.5 µg/mL (≈ 0.608 µM) | 0.01 µg/mL (≈ 0.0122 µM) | 1.7 µg/mL (≈ 2.07 µM) | 0.0008 µg/mL (≈ 0.000972 µM) | 0.6 µg/mL (≈ 0.729 µM) | 0.7 µg/mL (≈ 0.851 µM) | 0.2 µg/mL (≈ 0.243 µM) | 25 µg/mL (≈ 30.4 µM) | 0.8 µg/mL (≈ 0.972 µM) | 0.3 µg/mL (≈ 0.365 µM) | MIC [11]: 0.002 µg/mL (≈ 0.00243 µM); MIC ([1]; Mycobacterium tuberculosis, H37RV): 0.001 µg/mL (≈ 0.00122 µM); MIC ([1]; Mycobacterium tuberculosis, H37RV, 144 h, read-out: Antimycobacterial activity against M. tuberculosis H37Rv, in vitro (MIC)): 0.0008 µg/mL (≈ 0.000972 µM); MIC [23]: 3.8 µg/mL (≈ 4.62 µM); Cytotoxicity in HepG2 cells (TD50) ([4]; human): 75 µg/mL; MIC [24]: 1.5 µg/mL (≈ 1.82 µM)
O=C(/C=C/c1ccsc1)N1CCN(Cc2ccc3c(c2)OCO3)CC1 [AX-36, (E)-1-(4-(Benzo[d][1,3]dioxol-5-ylmethyl)piperazin-1-yl)-3-(thiophen-3-yl)prop-2-en-1-one] | 0.1 µg/mL (≈ 0.281 µM) | 0.3 µg/mL (≈ 0.842 µM) | 37.5 µg/mL | > 100 µg/mL | > 100 µg/mL | 10.4 µg/mL (≈ 29.2 µM) | 100 µg/mL (≈ 281 µM) | > 100 µg/mL | > 100 µg/mL | 26.9 µg/mL (≈ 75.5 µM) | 19.6 µg/mL (≈ 55 µM) | 1.6 µg/mL (≈ 4.49 µM) | 63 µg/mL (≈ 177 µM) | 0.8 µg/mL (≈ 2.24 µM) | > 100 µg/mL | > 100 µg/mL | > 100 µg/mL | 12.8 µg/mL (≈ 35.9 µM) | > 100 µg/mL | > 100 µg/mL | MIC [11, 34]: 0.01 µg/mL (≈ 0.0281 µM); Clearance Category ([25]; human, microsomes): medium; microsomal CLint at 2 µg/ml ([25]; human, microsomes): 16.8 µL/min/mg; Clearance Category ([25]; mouse, microsomes): high; microsomal CLint at 2 µg/ml ([25]; mouse, microsomes): 117 µL/min/mg; MIC [1, 35]: 0.1 µg/mL (≈ 0.281 µM); Intracellular ATP level, lower than untreated control [26]: ~90%; MIC [23]: > 100 µg/mL; MIC [24]: > 100 µg/mL
O=C(/C=C/c1cccs1)N1CCN(Cc2ccc3c(c2)OCO3)CC1 [AX-35, (E)-1-(4-(Benzo[d][1,3]dioxol-5-ylmethyl)piperazin-1-yl)-3-(thiophen-2-yl)prop-2-en-1-one] | 0.05 µg/mL (≈ 0.14 µM) | 0.1 µg/mL (≈ 0.281 µM) | 50 µg/mL | > 100 µg/mL | > 100 µg/mL | 7.7 µg/mL (≈ 21.6 µM) | 74 µg/mL (≈ 208 µM) | > 100 µg/mL | > 100 µg/mL | 12.1 µg/mL (≈ 33.9 µM) | 11.5 µg/mL (≈ 32.3 µM) | 1.6 µg/mL (≈ 4.49 µM) | 100 µg/mL (≈ 281 µM) | 0.8 µg/mL (≈ 2.24 µM) | > 100 µg/mL | > 100 µg/mL | > 100 µg/mL | 8.2 µg/mL (≈ 23 µM) | > 100 µg/mL | > 100 µg/mL | Increase in OCR on compound addition [27]: no longer observed; Mode of action (MBC, 99.9% killed) [28]: bacteriostatic; Outcome of AX-35 treatment in complemented strain [29]: survival of the bacteria; MIC [11, 34]: 0.003 µg/mL (≈ 0.00842 µM); MIC [30]: 0.3 µM (≈ 0.107 µg/mL); Clearance Category ([25]; human, microsomes): medium; microsomal CLint at 2 µg/ml ([25]; human, microsomes): 21.7 µL/min/mg; Clearance Category ([25]; mouse, microsomes): high; microsomal CLint at 2 µg/ml ([25]; mouse, microsomes): 120 µL/min/mg; Antimycobacterial activity against M. tuberculosis H37Rv, in vitro (MIC) [1]: 0.05 µg/mL; MIC [1, 35]: 0.05 µg/mL (≈ 0.14 µM); Intracellular ATP level, lower than untreated control [26]: ~90%; Oxygen consumption rate (OCR) change from basal on compound addition [31]: increase; MIC [32]: 0.3 µM (≈ 0.107 µg/mL); MIC [23]: > 100 µg/mL; Reduction of bacterial load in mouse lungs vs TPGS vehicle control ([3]; oral 200 mg/kg): 0.4 log10; MIC [24]: > 100 µg/mL
O=C(/C=C/c1cscn1)N1CCN(Cc2ccc3c(c2)OCO3)CC1 [AX-37, (E)-1-(4-(Benzo[d][1,3]dioxol-5-ylmethyl)piperazin-1-yl)-3-(1λ^3,3λ^2-thiazol-4-yl)prop-2-en-1-one] | 0.1 µg/mL (≈ 0.28 µM) | 0.2 µg/mL (≈ 0.56 µM) | 25 µg/mL | – | – | – | – | – | – | – | – | – | – | – | – | – | – | – | – | – | Reduction of bacterial load in mouse lungs vs TPGS vehicle control ([3]; oral 100 mg/kg): 0.6 log10
NC(=O)N1c2ccccc2C=Cc2ccccc21 [Carbamazepine, reference compound] | – | – | – | – | – | – | – | – | – | – | – | – | – | – | – | – | – | – | – | – | Clearance Category ([25]; human microsomes, compound 2 µg/ml): low; Clearance Category ([25]; mouse microsomes, compound 2 µg/ml): low
O=C(/C=C/c1ccccc1)N1CCN(Cc2ccc3c(c2)OCO3)CC1 [AX-38, (E)-1-(4-(Benzo[d][1,3]dioxol-5-ylmethyl)piperazin-1-yl)-3-phenylprop-2-en-1-one] | 0.2 µg/mL (≈ 0.571 µM) | 0.3 µg/mL (≈ 0.856 µM) | 37.5 µg/mL | – | – | – | – | – | – | – | – | – | – | – | – | – | – | – | – | – | Clearance Category ([25]; human, microsomes): medium; microsomal CLint at 2 µg/ml ([25]; human, microsomes): 13.3 µL/min/mg; Clearance Category ([25]; mouse, microsomes): high; microsomal CLint at 2 µg/ml ([25]; mouse, microsomes): 63.8 µL/min/mg
NNC(=O)c1ccncc1 [INH, isoniazid, reference compound] | – | – | – | – | – | – | – | – | – | – | – | – | – | – | – | – | – | – | – | – | log10 CFU per lung ([3]; 25 mg/kg oral, Day 10): below l.o.d.
CCc1nc2ccc(Cl)cn2c1C(=O)NCc1ccc(N2CCC(c3ccc(OC(F)(F)F)cc3)CC2)cc1 [Compound Q203, reference compound] | – | – | – | – | – | – | – | – | – | – | – | – | – | – | – | – | – | – | – | – | Increase in OCR on compound addition [27]: no longer observed; Oxygen consumption rate (OCR) change from basal on compound addition [31]: increase
